The record followed here is publication PMC11811597, “Phenomics‐Based Discovery of Novel Orthosteric Choline Kinase Inhibitors” (Angewandte Chemie (International Ed. in English), 2025).

The Kd is the free concentration of one partner at which half of the binding sites on the other are occupied at equilibrium, for simple one-to-one binding.

The target in assay [1] is T1, GVINP1 (Homo sapiens, UniProt Q7Z2Y8).
T1 construct: endogenous in cells; host or cells: intact HepG2 cells
The assay can be described thus: PISA thermal profiling, intact HepG2 cells. It is filed as cell-based. The following applies: 30 µM, 60 min, n=3. From the text:
To further corroborate our findings, we next performed the proteome integral solubility alteration (PISA) assay in HepG2 human hepatoma cells that express high levels of CHKA. Conceptually building on the cellular thermal shift assay (CETSA) with mass spectrometry based detection,[19, 20] PISA leverages compound‐mediated stabilisation of target proteins without the need of chemical modification in intact cells. […]
carried out using REFMAC[9] and COOT,[10] and concluded when no improvements resulted for Rfree and Rwork values, and when density maps indicated no further changes were justified.
Choline Coupled Enzymatic Assay
CHKA (120 ng, 24 µg/ml) was arrayed (5 µL) into a 96 well semi-skirted real time PCR plate. 4-fold dilution series and vehicle controls (0.5% DMSO) were prepared in a separate plate. A further DMSO control was included for use with a no protein well control. […]
After mixing, bubbles were removed by centrifugation (1000 × g, 1 min) and absorbance read at 340 nm on a PheraSTAR FSX (BMG Labtech), reading every minute for 10 min. […]
by centrifugation at 30,000 × g for 20 min at 4 °C. The soluble fractions were collected to fresh tubes and further processed to be analysed with mass spectrometry. […]
Sample preparation for the quantification of metabolites by nuclear magnetic resonance (NMR) spectroscopy was performed as described previously.[13] […]

Assay [2] has as its target CHKA (Homo sapiens, UniProt P35790). As to the kind of experiment: Isothermal calorimetry (ITC). The format is binding. More on the design: host or cells: E. coli BL21(DE3). On the procedure: mM NaCl, 5% glycerol, 500 mM imidazole, 0.5% TCEP, pH 7.5), the eluent was concentrated, and further purified by size exclusion chromatography using a HiLoad 16/600 Superdex S200 column (Cytiva) pre-equilibrated in Buffer C (20 mM HEPES, 150 mM NaCl, pH 7.5). The resulting protein purity was assessed by SDS-PAGE, and protein identity was confirmed by tryptic digest analysis. Protein concentration was determined to be 35.5 mg/mL, and was calculated using a theoretical molar extinction coefficient of 58830 M-1cm-1 as determined by ProtParam.[5]
Isothermal Calorimetry (ITC)
ITC experiments were performed in a buffer containing 20 mM HEPES pH 7.5 and 200 mM NaCl, using an VP-ITC microcalorimeter (MicroCal) at 15 °C. The protein concentration was 200 µM and compounds were tested at 20 µM. The titrations were conducted using an initial injection of 4 μL followed by further 29 injections of 8 μL each. Thermodynamic parameters were calculated using ΔG = ΔH − TΔS = −RT ln KB, where ΔG, ΔH, and ΔS are the changes in free energy, enthalpy, and entropy of binding, respectively. Single binding models were employed to fit the data. […]
For orientation: In ITC the heat of successive injections is recorded.

The structures appear in SMILES notation. Like-named read-outs stand apart in the source and are kept apart here.

Sequence of CHKA (P35790 75-457 limits assumed): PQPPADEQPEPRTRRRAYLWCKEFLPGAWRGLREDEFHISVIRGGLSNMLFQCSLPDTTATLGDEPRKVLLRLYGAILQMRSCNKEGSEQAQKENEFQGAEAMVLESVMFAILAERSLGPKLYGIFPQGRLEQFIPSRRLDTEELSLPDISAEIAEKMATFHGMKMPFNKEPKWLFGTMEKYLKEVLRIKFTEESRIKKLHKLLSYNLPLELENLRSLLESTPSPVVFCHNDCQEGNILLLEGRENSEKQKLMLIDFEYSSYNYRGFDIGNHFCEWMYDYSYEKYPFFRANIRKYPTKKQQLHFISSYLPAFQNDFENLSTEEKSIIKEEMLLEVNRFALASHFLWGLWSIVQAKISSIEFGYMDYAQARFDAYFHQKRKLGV
T1 sequence (Q7Z2Y8 whole entry): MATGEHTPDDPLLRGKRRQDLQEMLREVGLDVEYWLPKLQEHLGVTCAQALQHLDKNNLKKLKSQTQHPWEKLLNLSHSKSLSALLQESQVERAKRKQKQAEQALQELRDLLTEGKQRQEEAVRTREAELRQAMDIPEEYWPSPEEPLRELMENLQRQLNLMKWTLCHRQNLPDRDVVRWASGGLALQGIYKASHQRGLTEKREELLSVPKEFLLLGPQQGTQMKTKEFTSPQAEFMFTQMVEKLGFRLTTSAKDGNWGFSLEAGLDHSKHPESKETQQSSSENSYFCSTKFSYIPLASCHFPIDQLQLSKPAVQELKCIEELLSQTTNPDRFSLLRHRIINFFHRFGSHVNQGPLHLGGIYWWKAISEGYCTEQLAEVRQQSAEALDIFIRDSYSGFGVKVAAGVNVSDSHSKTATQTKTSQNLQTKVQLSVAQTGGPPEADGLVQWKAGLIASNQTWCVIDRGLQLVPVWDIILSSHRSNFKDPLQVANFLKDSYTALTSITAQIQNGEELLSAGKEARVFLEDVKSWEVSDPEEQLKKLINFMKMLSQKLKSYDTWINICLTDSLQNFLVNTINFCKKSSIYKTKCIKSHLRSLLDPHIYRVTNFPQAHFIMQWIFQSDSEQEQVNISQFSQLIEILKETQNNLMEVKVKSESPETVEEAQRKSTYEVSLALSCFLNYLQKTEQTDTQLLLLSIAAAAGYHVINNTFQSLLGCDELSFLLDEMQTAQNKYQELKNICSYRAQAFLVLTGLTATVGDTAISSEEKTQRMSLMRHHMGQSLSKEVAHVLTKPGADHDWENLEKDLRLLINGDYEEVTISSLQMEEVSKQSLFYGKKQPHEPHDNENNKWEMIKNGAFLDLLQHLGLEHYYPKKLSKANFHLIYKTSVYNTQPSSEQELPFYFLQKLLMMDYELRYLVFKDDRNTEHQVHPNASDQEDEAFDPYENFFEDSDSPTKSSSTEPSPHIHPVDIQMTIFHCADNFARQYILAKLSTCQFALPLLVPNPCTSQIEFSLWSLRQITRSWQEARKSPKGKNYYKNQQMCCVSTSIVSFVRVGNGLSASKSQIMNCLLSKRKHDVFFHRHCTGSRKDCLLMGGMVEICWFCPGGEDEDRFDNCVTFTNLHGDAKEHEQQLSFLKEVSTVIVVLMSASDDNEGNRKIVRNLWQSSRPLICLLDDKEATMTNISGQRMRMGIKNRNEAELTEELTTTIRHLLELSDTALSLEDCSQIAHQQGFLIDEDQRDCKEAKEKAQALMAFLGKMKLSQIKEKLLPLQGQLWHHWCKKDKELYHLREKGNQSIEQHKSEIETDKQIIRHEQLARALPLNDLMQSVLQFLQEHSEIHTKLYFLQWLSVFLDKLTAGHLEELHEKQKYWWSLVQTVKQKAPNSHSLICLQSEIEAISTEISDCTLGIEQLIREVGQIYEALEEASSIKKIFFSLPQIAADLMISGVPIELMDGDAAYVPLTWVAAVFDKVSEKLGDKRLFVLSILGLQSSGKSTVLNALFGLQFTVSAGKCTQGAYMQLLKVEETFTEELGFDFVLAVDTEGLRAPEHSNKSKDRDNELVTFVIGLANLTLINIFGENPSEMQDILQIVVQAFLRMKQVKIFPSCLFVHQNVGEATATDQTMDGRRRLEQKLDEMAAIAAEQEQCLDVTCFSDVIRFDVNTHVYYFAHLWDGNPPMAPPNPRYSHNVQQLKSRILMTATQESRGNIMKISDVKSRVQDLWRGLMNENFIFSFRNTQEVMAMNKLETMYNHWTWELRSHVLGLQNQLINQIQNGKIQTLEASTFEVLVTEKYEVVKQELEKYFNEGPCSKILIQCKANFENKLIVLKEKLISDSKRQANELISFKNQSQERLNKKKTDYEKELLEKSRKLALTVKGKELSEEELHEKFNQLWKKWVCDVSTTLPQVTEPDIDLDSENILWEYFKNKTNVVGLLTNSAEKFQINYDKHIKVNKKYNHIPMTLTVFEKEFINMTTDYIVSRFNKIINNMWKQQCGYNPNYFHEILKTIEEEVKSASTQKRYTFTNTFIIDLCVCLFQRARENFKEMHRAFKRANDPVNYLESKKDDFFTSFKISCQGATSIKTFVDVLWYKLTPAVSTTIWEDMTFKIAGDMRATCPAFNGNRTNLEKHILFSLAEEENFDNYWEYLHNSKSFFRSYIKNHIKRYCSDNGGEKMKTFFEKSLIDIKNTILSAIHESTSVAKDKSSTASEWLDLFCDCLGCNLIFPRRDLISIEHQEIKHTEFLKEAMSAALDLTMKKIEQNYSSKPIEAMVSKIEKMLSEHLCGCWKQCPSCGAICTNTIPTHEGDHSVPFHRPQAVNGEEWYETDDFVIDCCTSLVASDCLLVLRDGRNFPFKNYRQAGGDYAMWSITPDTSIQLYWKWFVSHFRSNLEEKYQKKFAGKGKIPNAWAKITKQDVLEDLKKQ

On to `COc1cc2c(NC3CCN(C(C)C)CC3)nc(C3CCCCC3)nc2cc1OCCCN1CCCC1` [UNC0638], for which, in assay [1], the “effect_CETSA_Intact (PISA amplitude), GVINP1” value is given as 0.358. In assay [2] (ITC, 15 °C, recombinant human CHKA, read-out: KD), the Kd came to 270 nM.
On to `COc1cc2c(N(C)C3CCN(C(C)C)CC3)nc(C3CCCCC3)nc2cc1OCCCN1CCCC1` [UNC0737], for which the “effect_CETSA_Intact (PISA amplitude), GVINP1” value in assay [1] was 0.871. The equilibrium dissociation constant (Kd) in assay [2] was found to be 59.3 nM.
